Results taken from patent publication US5334761A, “Cationic lipids” (Life Technologies, Inc., priority 1992, dated 1994).
Structures can show the parent of a compound that is named as a salt.

Assays:
[1] = % protein (toxicity estimate, Bradford) after transfection; format: cell-based; settings: monkey, cos-7 cells; 12 μg lipid; 1 μg pSV2CAT; 6 h DMEM
Procedure: (§1) A one-to-one mixture (by weight) of the desired lipid and dioleylphosphatidyl ethanolamine was prepared in CHCl3. The CHCl3 was removed on the rotary evaporator to obtain a thin film of lipid mixture. The mixture was hydrated with enough water to obtain approximately 1.25 mg of lipid per ml of solution. The solution was passed through a microfluidizer twice and diluted to 1 mg/ml. The liposome formulation was then filtered through a 0.2 μ filter. Compound 8 was also formulated without DOPE either by sonication at 1 mg/ml in water or by dissolving a dried lipid film with ethanol and then adding water to give a final concentration of 2.5 mg/ml. Ethanol was 10% of that volume. In some instances, this was further diluted with water to 1 mg/ml, 4% ethanol.
(§2) Baby hamster kidney (BHK-21) , COS-7, HeLa-S3 cells, and normal human fibroblasts isolated from newborn foreskin dermis were grown in Dulbecco's-modified Eagle's medium (DMEM) containing 10% fetal bovine serum (FBS), 2 mM L-glutamine (gln), 0.1 mM MEM nonessential amino acids (NEAA), 100 U/ml penicillin, and 100 μg/ml streptomycin. […]
(§3) The "% protein" column indicates the relative amount of protein in the sample tested for CAT activity and therefore provides a way to estimate toxicity of the compounds being tested. […] Protein was measured using a commercially available Bradford protein assay (BioRad Laboratories, Richmond, Ca.). […]

COS-7 cells = assay: as above; format: cell-based; settings: Cos-7
Procedure: as §1, §2, §3

[2] = test system: normal human keratinocytes; assay: as above; format: cell-based
Procedure: as §1
Baby hamster kidney (BHK-21) , COS-7, HeLa-S3 cells, and normal human fibroblasts isolated from newborn foreskin dermis were grown in Dulbecco's-modified Eagle's medium (DMEM) containing 10% fetal bovine serum (FBS), 2 mM L-glutamine (gln), 0.1 mM MEM nonessential amino acids (NEAA), 100 U/ml penicillin, and 100 μg/ml streptomycin. NIH-3T3 cells were grown in DMEM containing 10% calf serum (CS), 2 mMgln, 0.1 mM NEAA 100 U/ml penicillin, and 100 μg/ml streptomycin. PC12 cells were grown in DMEMcontaining 10% horse serum, 5% FBS, 2 mM gln, 0 1 mMNEAA, 100 U/ml penicillin and 100 μ/ml streptomycin. Jurkat cells (human lymphoid cell line) were grown in RPMI-1640 supplemented with 10% FBS, 2mML-glutamine, 100 U/ml penicillin, and 100 μg/ml streptomycin. Human keratinocytes were isolated from newborn foreskin epidermis and cultured in Keratinocyte Growth Medium (Clonetics, San Diego, Ca.). All cell lines were maintained in a humidified incubator with a 5% CO2 atmosphere at 37° C. […]
as §3

BHK-21 cells = assay: CAT transient transfection; format: cell-based, baby hamster
Procedure: as §1, §2
Cell lysates were assayed for CAT activity as described by Neumann et al. (1987) BioTechniques 5:444 using [^14 C]-butyryl coenzyme A (New England Nuclear, Boston, Mass.). […] CAT activity was determined by measuring radioactivity in a liquid scintillation counter. […]

[3] = % protein (toxicity estimate, Bradford) after transfection; format: cell-based, rat; settings: rat, pc12 cells; 40 μg lipid; 2 μg pCMVCAT; 6 h DMEM
Procedure: as §1, §2, §3

PC12 cells = assay: as above; format: cell-based, rat; settings: PC12
Procedure: as §1, §2, §3

Compound: CCCCCCCC/C=C\CCCCCCCCOCC(C[N+](C)(C)CCNC(=O)C(CCCNCCCN)NCCCN)OCCCCCCCC/C=C\CCCCCCCC (stereo not drawn) [Compound 8, 1-Propanaminium, N-[2-[[2,5-bis[(3-amino]-1-oxopentyl]amino]ethyl]-n,n-dimethyl-2,3,-bis(9-octadecenyloxy)-, tetra(trifluoroacetate) salt]
- viability at 6 h [1]: 99.1%
- toxicity (in words) (COS-7 cells): minimal toxicity
- toxicity (in words) [2]: minimal toxicity
- DNA transfection (in words) (BHK-21 cells): highly effective
- viability at 6 h [3]: 66%
- toxicity (in words) (PC12 cells): minimal toxicity
